pEC50: −log10 of the molar value.

The test system of data set [1] is RSV (RSV A2 ECACC, 0709161v). As to the kind of experiment: RSV plaque reduction assay. The following applies: human respiratory syncytial virus, HepG2, read-out: RSV A2 Plaque EC50, RSV A2 in Hep-G2 cells; mean of at least two experiments unless noted (n = 1). The data set is classed as cell-based, respiratory syncytial virus. As for the experimental part:
Compounds w ere subjected to RSV plaque reduction assays according to the following protocol.
Hep-G2 cells (ECACC, 85011430) were passaged in flasks and seeded in 24-well plates in DMEM containing antibiotics and supplemented with 10% FBS. During inoculation and subsequent incubation, cells were cultured in DMEM containing 2% FBS. 100 plaque forming unit/well of RSV (RSV A2 ECACC, 0709161v) was mixed with eight serial dilutions of compound. Subsequently, 100 μL of the virus/compound mixtures was added to confluent Hep-G2 cell monolayers. The cells and virus/compound mixtures were incubated at 37° C. in a humidified 5% CO2 incubator for 2 h prior to removal of the inoculum and addition of 1 mL of overlay (DMEM containing 2% FBS and 0.8% CMC) containing compound dilutions. The cells and were incubated at 37° C. in a humidified 5% CO2 incubator for 2 days.
Cells were washed with PBS before adding 75/25% v/v EtOH MeOH, for 3 min. Fixative was removed and plates were washed with PBS. A pre-titrated amount of the primary antibody was added in 200 μL PBS/2% milk powder, and plates incubated for 90 min at 37° C. The plates were washed 3 times with PBS/0.05% Tween20 before addition of rabbit anti-goat horse radish peroxidase in 200 μL PBS/2% milk powder, and incubated for 1 h at 37° C. Following three wash steps with PBS/0.05% Tween20, 200 μL ready-to-use TrueBlue was added and plates were incubated at rt for 10-15 min before washing with water. After removal of water, plates were air-dried in the dark.
Plates were scanned and analysed using the Immunospot S6 Macro analyser, which is equipped with BioSpot analysis software for counting immunostained plaques (virospots). Plaque counts were used to calculate % infection relative to the mean of the plaque count in the virus control wells for RSV. […] Unless otherwise noted, plaque EC50 and cell toxicity CC50 values are a mean of at least two experiments and figures are rounded to whole units.

The nature of a further data set: cell toxicity CC50. The format is cell-based. The following applies: human; Hep-G2 cells; mean of at least two experiments; read-out: Cell Cytotoxicity CC50.

On to `CCNc1ccc(-c2nn3c(c2C(=O)N[C@H]2N=C(c4ccccc4)c4cccc(F)c4NC2=O)O[C@H](C)CC3)cn1` [Example 52, (5R)-2-[6-(Ethylamino)-3-pyridyl]-N-[(3S)-9-fluoro-2-oxo-5-phenyl-1,3-dihydro-1,4-benzodiazepin-3-yl]-5-methyl-6,7-dihydro-5H-pyrazolo[5,1-b][1,3]oxazine-3-carboxamide], for which the pEC50 in data set [1] is 7.55. Moreover, in “cell toxicity CC50”, the CC50 was over 25 µM.

For `C[C@@H]1CCn2nc(Nc3ccccc3)c(C(=O)N[C@H]3N=C(c4ccccc4)c4cccc(F)c4NC3=O)c2O1` [Example 95, (5R)-2-Anilino-5-methyl-N-[(3S)-9-fluoro-2-oxo-5-phenyl-1,3-dihydro-1,4-benzodiazepin-3-yl]-6,7-dihydro-5H-pyrazolo[5,1-b][1,3]oxazine-3-carboxamide], the pEC50 in data set [1] was 6.45. For the same compound, the 50% cytotoxic concentration (CC50) in “cell toxicity CC50” is over 25 µM.

With `CC(O)Cc1ccc(-c2nn3c(c2C(=O)N[C@H]2N=C(c4ccccc4)c4cccc(F)c4NC2=O)O[C@H](C)CC3)cn1` (stereo partly drawn) [Example 78, (5R)-2-[6-(2-Hydroxypropyl)pyridin-3-yl]-5-methyl-N-[(3S)-9-fluoro-2-oxo-5-phenyl-1,3-dihydro-1,4-benzodiazepin-3-yl]-6,7-dihydro-5H-pyrazolo[5,1-b][1,3]oxazine-3-carboxamide], the pEC50 in data set [1] is 6.66. The cytotoxic concentration (CC50) in the data set “cell toxicity CC50” is over 25 µM.

Turning to `COc1cc(-c2nn3c(c2C(=O)N[C@H]2N=C(c4ccccc4)c4cccc(F)c4NC2=O)O[C@H](C)CC3)ccn1` [Example 48, (5R)-2-(2-Methoxypyridin-4-yl)-5-methyl-N-[(3S)-9-fluoro-2-oxo-5-phenyl-1,3-dihydro-1,4-benzodiazepin-3-yl]-6,7-dihydro-5H-pyrazolo[5,1-b][1,3]oxazine-3-carboxamide], in data set [1], the negative-log EC50 (pEC50) is 6.61. Also, the CC50 in “cell toxicity CC50” is over 25 µM.

Take `N#Cc1ccc(-c2nn3c(c2C(=O)N[C@H]2N=C(c4ccccc4)c4cccc(F)c4NC2=O)OCCC3)c(F)c1` [Example 138, 2-(4-Cyano-2-fluorophenyl)-N-[(3S)-9-fluoro-2-oxo-5-phenyl-1,3-dihydro-1,4-benzodiazepin-3-yl]-6,7-dihydro-5H-pyrazolo[5,1-b][1,3]oxazine-3-carboxamide]: the pEC50 in data set [1] was 7.27. Moreover, the CC50 in the data set “cell toxicity CC50” is over 25 µM.

`C[C@@H]1CCn2nc(-c3ccsc3)c(C(=O)N[C@H]3N=C(c4ccccc4)c4cccc(F)c4NC3=O)c2O1` [Example 63, (5R)-N-[(3S)-9-fluoro-2-oxo-5-phenyl-1,3-dihydro-1,4-benzodiazepin-3-yl]-5-methyl-2-(3-thienyl)-6,7-dihydro-5H-pyrazolo[5,1-b][1,3]oxazine-3-carboxamide]: in data set [1], the pEC50 is 7.03. Besides, the CC50 in “cell toxicity CC50” was over 25 µM.

As for `CCc1ccc(-c2nn3c(c2C(=O)N[C@H]2N=C(c4ccccc4)c4cccc(F)c4NC2=O)O[C@H](C)CC3)cn1` [Example 74, (5R)-2-(6-Ethylpyridin-3-yl)-5-methyl-N-[(3S)-9-fluoro-2-oxo-5-phenyl-1,3-dihydro-1,4-benzodiazepin-3-yl]-6,7-dihydro-5H-pyrazolo[5,1-b][1,3]oxazine-3-carboxamide], the pEC50 in data set [1] is 7.41. In “cell toxicity CC50”, the CC50 is over 25 µM.

As for `CCc1ccc(-c2nn3c(c2C(=O)N[C@H]2N=C(c4ccccc4)c4cccc(F)c4NC2=O)O[C@@H](C)CC3)cn1` [Example 127, (5S)-2-(6-Ethylpyridin-3-yl)-N-[(3S)-9-fluoro-2-oxo-5-phenyl-1,3-dihydro-1,4-benzodiazepin-3-yl]-5-methyl-6,7-dihydro-5H-pyrazolo[5,1-b][1,3]oxazine-3-carboxamide], the pEC50 in data set [1] was 7.39. Moreover, the CC50 in “cell toxicity CC50” was over 25 µM.

As for `CCc1ccc(-c2nn3c(c2C(=O)N[C@H]2N=C(c4ccccc4)c4ccccc4NC2=O)OCC2(CCC2)C3)cn1` [Example 176, 2-(6-Ethylpyridin-3-yl)-N-[(3S)-2-oxo-5-phenyl-1,3-dihydro-1,4-benzodiazepin-3-yl]spiro[5,7-dihydropyrazolo[5,1-b][1,3]oxazine-6,1′-cyclobutane]-3-carboxamide], in data set [1], the pEC50 was 7.20. Moreover, the CC50 in the data set “cell toxicity CC50” was over 25 µM.

As to `Cc1ccc(-c2nn3c(c2C(=O)N[C@H]2N=C(c4ccccc4)c4cccc(F)c4NC2=O)O[C@H](C)CC3)c(C)n1` [Example 58, (5R)-2-(2,6-Dimethyl-3-pyridyl)-N-[(3S)-9-fluoro-2-oxo-5-phenyl-1,3-dihydro-1,4-benzodiazepin-3-yl]-5-methyl-6,7-dihydro-5H-pyrazolo[5,1-b][1,3]oxazine-3-carboxamide], the pEC50 in data set [1] is 6.73. In addition, in “cell toxicity CC50”, the CC50 is over 25 µM.

For the compound `CCNCC1COc2c(C(=O)N[C@H]3N=C(c4ccccc4)c4cccc(F)c4NC3=O)c(-c3ccccc3F)nn2C1` (stereo partly drawn) [Example 192, 6-(Ethylaminomethyl)-N-[(3S)-9-fluoro-2-oxo-5-phenyl-1,3-dihydro-1,4-benzodiazepin-3-yl]-2-(2-fluorophenyl)-6,7-dihydro-5H-pyrazolo[5,1-b][1,3]oxazine-3-carboxamide], the negative-log EC50 (pEC50) in data set [1] is 6.61. Besides, the cytotoxic concentration (CC50) in the data set “cell toxicity CC50” was over 24.4 µM.

For the compound `C[C@H]1CCn2nc(-c3cnn(CC(F)(F)F)c3)c(C(=O)N[C@H]3N=C(c4ccccc4)c4cccc(F)c4NC3=O)c2O1` [Example 157, (5S)-N-[(3S)-9-fluoro-2-oxo-5-phenyl-1,3-dihydro-1,4-benzodiazepin-3-yl]-5-methyl-2-[1-(2,2,2-trifluoroethyl)pyrazol-4-yl]-6,7-dihydro-5H-pyrazolo[5,1-b][1,3]oxazine-3-carboxamide], the pEC50 in data set [1] is 7.32. Besides, in the data set “cell toxicity CC50”, the CC50 was over 25 µM.

For the compound `C[C@@H]1CCn2nc(-c3ccc4c(cnn4C)c3)c(C(=O)N[C@H]3N=C(c4ccccc4)c4cccc(F)c4NC3=O)c2O1` [Example 83, (5R)-5-Methyl-2-(1-methylindazol-5-yl)-N-[(3S)-9-fluoro-2-oxo-5-phenyl-1,3-dihydro-1,4-benzodiazepin-3-yl]-6,7-dihydro-5H-pyrazolo[5,1-b][1,3]oxazine-3-carboxamide], the pEC50 in data set [1] is 6.94. In addition, the cytotoxic concentration (CC50) in the data set “cell toxicity CC50” was over 25 µM.

For `C[C@@H]1CCn2nc(-c3cc(C4CC4)cnc3F)c(C(=O)N[C@H]3N=C(c4ccccc4)c4cccc(F)c4NC3=O)c2O1` [Example 53, (5R)-2-(5-Cyclopropyl-2-fluoro-3-pyridyl)-N-[(3S)-9-fluoro-2-oxo-5-phenyl-1,3-dihydro-1,4-benzodiazepin-3-yl]-5-methyl-6,7-dihydro-5H-pyrazolo[5,1-b][1,3]oxazine-3-carboxamide], in data set [1], the pEC50 is 7.04. Also, the CC50 in “cell toxicity CC50” was over 25 µM.

Regarding `CCc1ncc(-c2nn3c(c2C(=O)N[C@H]2N=C(c4ccccc4)c4ccccc4NC2=O)O[C@H](C)CC3)cn1` [Example 59, (5R)-2-(2-Ethylpyrimidin-5-yl)-5-methyl-N-[(3S)-2-oxo-5-phenyl-1,3-dihydro-1,4-benzodiazepin-3-yl]-6,7-dihydro-5H-pyrazolo[5,1-b][1,3]oxazine-3-carboxamide], the pEC50 in data set [1] is 6.51. For the same compound, in “cell toxicity CC50”, the CC50 is over 25 µM.

Consider `Cc1ccc(-c2nn3c(c2C(=O)N[C@H]2N=C(c4ccccc4)c4ccccc4NC2=O)O[C@H](C)CC3)c(C)n1` [Example 57, (5R)-2-(2,6-Dimethyl-3-pyridyl)-5-methyl-N-[(3S)-2-oxo-5-phenyl-1,3-dihydro-1,4-benzodiazepin-3-yl]-6,7-dihydro-5H-pyrazolo[5,1-b][1,3]oxazine-3-carboxamide], for which the pEC50 in data set [1] is 6.45. In the data set “cell toxicity CC50”, the CC50 was over 25 µM.

With `CCN(CC)CC1COc2c(C(=O)N[C@H]3N=C(c4ccccc4)c4cccc(F)c4NC3=O)c(-c3ccccc3F)nn2C1` (stereo partly drawn) [Example 164, 6-(Diethylaminomethyl)-N-[(3S)-9-fluoro-2-oxo-5-phenyl-1,3-dihydro-1,4-benzodiazepin-3-yl]-2-(2-fluorophenyl)-6,7-dihydro-5H-pyrazolo[5,1-b][1,3]oxazine-3-carboxamide], the pEC50 in data set [1] is 7.06. The CC50 in “cell toxicity CC50” was over 25 µM.

With `C[C@@H]1CCn2nc(-c3cnn(C4CC4)c3)c(C(=O)N[C@H]3N=C(c4ccccc4)c4cccc(F)c4NC3=O)c2O1` [Example 126, (5R)-2-(1-Cyclopropylpyrazol-4-yl)-N-[(3S)-9-fluoro-2-oxo-5-phenyl-1,3-dihydro-1,4-benzodiazepin-3-yl]-5-methyl-6,7-dihydro-5H-pyrazolo[5,1-b][1,3]oxazine-3-carboxamide], in data set [1], the pEC50 was 7.27. Moreover, in the data set “cell toxicity CC50”, the half-maximal cytotoxic concentration (CC50) was over 25 µM.

`O=C(N[C@H]1N=C(c2ccccc2)c2cccc(F)c2NC1=O)c1c(-c2ccccc2F)nn2c1OCC1(CCC1)C2` [Example 185, 2-(2-Fluorophenyl)-N-[(3S)-9-fluoro-2-oxo-5-phenyl-1,3-dihydro-1,4-benzodiazepin-3-yl]spiro[5,7-dihydropyrazolo[5,1-b][1,3]oxazine-6,1′-cyclobutane]-3-carboxamide]: the pEC50 in data set [1] is 7.49. In “cell toxicity CC50”, the CC50 is over 25 µM.

These data come from patent US12678446B2 (PFIZER INC., priority 2020, dated 2026).
